melting point	Structure (SMILES)
130 °C	CCCCOC(=O)C=Nc1cc(Cl)ccc1C(=O)O
80 °C	Brc1ccc(SCc2noc(CSc3ccc(Br)cc3)n2)cc1
88 to 89 °C	CC(C)(C)OC(=O)N1CCc2ccccc2CC1
170 °C	CCOc1ccccc1NC=C1C(=O)N(c2ccc(S(=O)(=O)N(CC)CC)cc2)N=C1C
246 to 247 °C	CCS(=O)(=O)c1ccc(-c2coc3ccc(-c4nnc(C)o4)nc23)cc1
151 to 153 °C	COc1nc(NC(=O)NS(=O)(=O)c2cccc3cccnc23)nc(OC)n1
149 to 150 °C	CCOC(=O)C(C)(C)Oc1ccc(-c2ccc(CCNC(=O)c3ccc(OC)cc3)cc2)cc1
193 to 195 °C	CNC(=O)c1ccccc1N=C(NC(=O)c1ccccc1)SC
292 to 295 °C	O=C1N=C(N2CCOCC2)SC1c1cccc(-c2ccc(O)c(-c3ccccc3)c2)n1 (configuration not stated)
168 to 170 °C	COc1ccc(OC)c2c1COC2=O
202 to 203 °C	CC(Cl)(Cl)C(NC(=O)c1cc(F)cc(F)c1)NC(=NC#N)Nc1ccc(C(F)(F)F)nc1 (configuration not stated)
70 to 74 °C	O=C(O)c1cnn(CCCCN2CCN(C(c3ccccc3)c3ccccc3)CC2)c1
187 to 189 °C	O=C(O)c1cccc(OCc2c(Cl)cccc2Cl)c1
227 to 228 °C	O=c1[nH]c2ccccc2c(=O)cc1Nc1ccccc1
59 to 62 °C	COc1cc(C)c(C(=O)c2c(C(F)(F)F)ccnc2Cl)c(OC)c1OC
162 to 164 °C	C1=Cc2ccccc2C(C2CCN(C3CCCCC3)CC2)c2ccccc21
157 to 158 °C	O=[N+]([O-])c1ccc(S(=O)(=O)NCc2ccccc2C(F)(F)F)c([N+](=O)[O-])c1
134 to 136 °C	CS(=O)(=O)CCNc1cc(C(c2cc(F)ccc2F)S(=O)(=O)c2ccc(Cl)cc2)c(Cl)cn1 (configuration not stated)
133 °C	CCOc1cc(N)nc(Cl)n1
42 to 45 °C	CCC(CC)n1nnc2cc(C(F)(F)F)cc([N+](=O)[O-])c21
73 to 74 °C	COC(=O)CCCc1oc(Cl)nc1-c1ccc(Cl)cc1
248 to 249 °C	Cc1cc(Oc2ccc(S(C)(=O)=O)nc2)cc2cc(C3=NCC(CC(=O)O)S3)[nH]c12 (configuration not stated)
95 to 98 °C	COc1ccc(-c2cc(C3CCCCC3)sc2-c2ccc(OC)cc2)cc1
113 to 114 °C	COc1ccc(C(=O)C2=C(c3ccccc3)c3ccc(OC)cc3C2)cc1

melting point	Structure (SMILES)
103 to 111 °C	CCOC(=O)[C@H](Cc1cccc(OCc2ccc3ccccc3c2)c1)NC(=O)C(F)(F)F
130 to 132 °C	Cc1cc(C)c(C)c(COc2cccc(-c3c(-c4ccccc4)coc3C(=O)NNC(=O)c3ccc(O)c([N+](=O)[O-])c3)c2)c1C
223 to 225 °C	CCOC(=O)c1c(Nc2ccc(Cl)cc2)n[nH]c1C
227 to 228 °C	Cc1csc(C(=O)C2C(=O)N(C(N)=O)c3ccc(Cl)nc32)c1 (configuration not stated)
162 °C	COc1ccc(-c2nn(Cc3cccnc3)c(=O)cc2-c2ccncc2)cc1
166 to 167 °C	CN1CCC(O)(c2ccccc2[N+](=O)[O-])CC1
78 °C	O=C1CCc2ccc(C(F)(F)F)cc2CC1
80 to 85 °C	CC(C)COc1c(-c2ccc(S(N)(=O)=O)cc2)cnn(-c2cccc(Cl)c2)c1=O
88 to 91 °C	ClCc1cn(C(c2ccccc2)(c2ccccc2)c2ccccc2)cn1
188 to 189 °C	Oc1ccc(-c2c3ccccc3cc3sc4ccccc4c23)cc1O
184 °C	Cc1nc2ccc(OC3SCC(O)C(O)C3O)cc2s1 (configuration not stated)
207 to 208 °C	O=C1Nc2ccccc2N(C(=O)CN2C(=O)c3ccccc3C2=O)C2CCCC12 (configuration not stated)
201 to 203 °C	COc1ccc(CCNC(=O)c2ccc(S(=O)(=O)NC(=O)c3ccc(C(=O)NCCO)nc3)cc2)cc1OC
60 to 63 °C	O=C1C(=Cc2cccs2)CCc2cc(OCCc3c[nH]cn3)ccc21
59 to 61 °C	Cc1cc(-c2cc(Cl)n(C)n2)c(C)[nH]1
169 °C	Nc1nc(C2CCCCN2)ncc1-c1ccc(Cl)cc1Cl (configuration not stated)
131 to 132 °C	Cc1c(C)c2c(c(C)c1O)SCO2
162 to 164 °C	CCOCc1nc2c(N)nc3cc(OCc4cccc([N+](=O)[O-])c4)ccc3c2n1CC(C)C
153 to 155 °C	CNC(=O)CCCSc1nccc(NC(N)=NCC(F)(F)F)n1
175 to 177 °C	CCOC(=O)c1cn(Cc2cnsn2)c2nc(Cl)c(F)cc2c1=O
100 to 101 °C	COc1ccc(C=C(c2ccc(OC)cc2)c2ccc(OC)cc2)cc1
114 to 116 °C	CC(C)=CCOc1ccc2c(C)cc(=O)oc2c1C(=O)C=Cc1ccccc1
198 to 199 °C	CCOC(=O)CC(NC(=O)CNC(=O)c1csc(N=C2NCCN2)n1)c1cccnc1 (racemic)
177 to 178 °C	N#Cc1cccc(COc2ncc(F)c(NC(=O)NCc3ccccc3F)n2)c1

melting point	Structure (SMILES)
112 °C	CCCCc1cc2ccccc2c(Cc2ccc(C(=O)O)cc2)n1
235 to 236 °C	COc1cc2c(Nc3ccc(Oc4cccnc4)cc3)c(C#N)cnc2cc1F
150 to 152 °C	CCC(=O)N(C)c1cccc(-c2ccc3nnc(C)n3n2)c1
106 to 107 °C	O=C(/C=C/c1ccc(O)cc1)C(F)(F)F
141 to 143 °C	NC(=O)C(CCC(=O)OCc1ccccc1)N1Cc2c(OCc3ccc(CN4CCOCC4)cc3)cccc2C1=O (configuration not stated)
220 to 222 °C	CN1C(=O)C(NC(=O)Nc2cccc(I)c2)N=C(N2CC3CCC(CC3)C2)c2ccccc21 (single isomer, unassigned; (+))
93 °C	CCCc1c(OCCOc2ccc(C(=O)NCCCCc3cccnc3)cc2)ccc(C(C)=O)c1O
100 to 101 °C	C[C@@H](n1ncn(-c2ccc(F)cc2)c1=O)[C@@]1(c2ccc(F)cc2F)CO1
129 to 131 °C	Cc1cc(C)cc(OC(C)(C)C(=O)O[C@H]2C[C@H](O)C=C3C=C[C@H](C)[C@H](CC[C@@H]4C[C@@H](O)CC(=O)O4)[C@H]32)c1
114 to 116 °C	[N-]=[N+]=NCCCc1cc(-c2ccccc2)n(-c2ccc(S(N)(=O)=O)cc2)n1
164 to 166 °C	Cc1sc(-c2ccccc2)nc1CCC(=O)c1ccc(CC2SC(=O)NC2=O)s1 (configuration not stated)
79 to 81 °C	O=[N+]([O-])c1cc(-n2cccc2)ccc1F
122 to 124 °C	O=C1CCCN1N=c1sc2ccccc2s1
44 °C	CCCCCCc1ccc(-c2ccc(-c3ccc(CCCCC)cc3)c(F)c2)s1
> 276 °C	CNC(=O)c1ccc2cc(C(=O)O)ccc2c1
204 to 207 °C	COc1cc2ncnc(N3CCCCCc4ccccc43)c2cc1OC
112 °C	CCOC(=O)c1cccc2c(-c3ccc(C)cc3)nccc12
211 to 213 °C	CSc1ncc(Cc2cccnc2)c(=S)[nH]1
93 to 96 °C	CCCCCCCC/C=C\CCCCCCCCOc1ccc(C(=O)O)o1
97 to 99 °C	CC(C)(C)Nc1nccc(C#Cc2ccc(F)cc2)n1
145 to 149 °C	O=C(NC1CN(C(C(=O)O)c2ccccc2)C1=O)C(=NO)c1ccccc1 (configuration not stated)
293 to 295 °C	O=C(O)c1cccc(-c2cc(-c3ccc(Cl)cc3)on2)c1
122 to 123 °C	Fc1cccc(F)c1-c1nc(/C=C/c2ccc(-c3ccc(OC(F)(F)F)cc3)cc2)no1
130 to 132 °C	COc1ccc(-c2nc(CN3CCCCC3)nc3cc(OC)c(OC)cc23)cc1OC

melting point	Structure (SMILES)
104 to 105 °C	O=C(NCCc1c[nH]c2ccc(F)cc12)OCc1ccccc1
184 to 186 °C	Cc1nc2cccc(OCC(C)(C)NC(=O)C(C)C)c2c(N)c1C(=O)O
158 to 160 °C	CCOC(=O)NNc1ccc(-c2ccccc2)nn1
195 to 199 °C	CN1CCN(c2cc(F)cc3c(=O)cc(C(=O)Nc4ccc(N5CCN(C(=O)CCO)CC5)cc4)oc23)CC1
113 to 115 °C	O=C(Nc1ccccn1)c1cccc(-c2cccc(OCCc3ccc(Cl)cc3Cl)n2)c1
136 to 137 °C	OC1CCSC(=S)N1c1ccc(Cl)cn1 (configuration not stated)
115 °C	COc1nc(NC(=O)NS(=O)(=O)c2c(Br)csc2C(=O)c2cccs2)nc(OC)n1
245 to 246 °C	CNC(=O)c1sc(NC(C)=O)nc1CCc1ccc(NC(NC(=O)OC(C)(C)C)NC(=O)OC(C)(C)C)cc1
207 to 209 °C	COc1cc(Cl)ccc1C(=O)NC1CN(c2ccc(F)cc2)CCn2c1nc(-c1ccncn1)cc2=O (racemic)
145 to 147 °C	CNC(=O)n1cnc(C(=O)NC(C)(C)C)c1N
30 to 31 °C	CCCCCCCCCCCCOc1ccc(CP(=O)(OC)OC)cc1
161 to 164 °C	Nc1nc(NCCc2ccc(C=CC3CCCCC3)cc2)nc2c1ncn2C1OC(CO)C(O)C1O (configuration not stated)
202 to 204 °C	CCCn1c(COCC)nc2c(N)nc3cc(OC4CCNCC4)ccc3c21
109 to 110 °C	CN(C)C(=O)c1nc(-c2cccc3ccccc23)no1
101 to 102 °C	COC(=O)[C@@H]1COC(=S)N1Cc1ccccc1
149 to 154 °C	O=C(O)[C@H](CCc1ccccc1)NS(=O)(=O)c1ccc2c(c1)Sc1ccccc1O2
146 to 147 °C	CC(C)Cn1c(CNC(=O)OC(C)(C)C)c(-c2ccccc2)c2cc(/C=C/C(N)=O)ccc2c1=O
173 to 174 °C	CCOC(=O)c1cn(N)c2nc(C)ccc2c1=O
174 °C	O=c1c2cnc3ccc(F)cc3c2on1-c1ccccc1
232 to 236 °C	O=C(Cn1cc(Cl)cnc1=O)c1ccc([N+](=O)[O-])cc1
110 °C	CC(C)Oc1ccc(-c2nc(=O)c3ccccc3s2)cn1

Structure (SMILES)	melting point
CC1(CF)C(=O)N(c2ccc(C#N)c(C(F)(F)F)c2)C(=O)N1CCF (configuration not stated)	137 to 138 °C
CC(C)C(C)(C)[Si](C)(C)OC1CCC2(C)C(=CC=C3C4CCC(=O)C4(C)CCC32)C1 (configuration not stated)	119 to 125 °C
CCN(CC)C(=O)c1ccc(C(=C2CCN(Cc3ccccc3)CC2)c2ccc(Cl)cc2)cc1	100 to 110 °C
Cc1c([N+](=O)[O-])cc(S(F)(F)(F)(F)F)cc1[N+](=O)[O-]	108 to 109 °C

Reference: a melting point compilation (Tetko et al.; mined from patent text by program, amines drawn as free bases though some values may be those of a salt)
